Experimental findings from ChEMBL document CHEMBL1156230, “Identification of phenylsulfone-substituted quinoxaline (WYE-672) as a tissue selective liver X-receptor (LXR) agonist” (J Med Chem, 2010) are described below.

Series [1] is described as follows: Tmax in C57 mouse at 10 mg/kg, po. It counts as ADME, organism-based. Details: dose 10 mg/kg, route oral. Particulars: in vivo.
In series [2] the target is T1, Oxysterols receptor LXR-alpha (Homo sapiens, UniProt Q13133).
T1 sequence (Q13133 whole entry): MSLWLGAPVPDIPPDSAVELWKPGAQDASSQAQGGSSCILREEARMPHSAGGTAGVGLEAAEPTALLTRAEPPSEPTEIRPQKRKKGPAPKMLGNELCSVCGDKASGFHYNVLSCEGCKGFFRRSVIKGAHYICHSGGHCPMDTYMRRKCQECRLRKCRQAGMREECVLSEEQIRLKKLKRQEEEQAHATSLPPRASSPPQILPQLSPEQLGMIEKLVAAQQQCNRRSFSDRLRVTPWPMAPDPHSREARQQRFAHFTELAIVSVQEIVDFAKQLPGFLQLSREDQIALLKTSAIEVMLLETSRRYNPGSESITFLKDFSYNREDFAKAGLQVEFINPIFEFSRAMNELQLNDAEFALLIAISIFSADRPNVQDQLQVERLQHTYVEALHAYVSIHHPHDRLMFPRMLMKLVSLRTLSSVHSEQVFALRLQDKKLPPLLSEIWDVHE
Nature of the series: Displacement of [3H]T0901317 from human LXRalpha ligand binding domain. (In general: Loss of bound radioactivity is the signal in a displacement assay; it reports binding, not function.)

For series [3], the target named is T2, Mineralocorticoid receptor (Homo sapiens) (UniProt P08235).
T2 sequence (whole entry): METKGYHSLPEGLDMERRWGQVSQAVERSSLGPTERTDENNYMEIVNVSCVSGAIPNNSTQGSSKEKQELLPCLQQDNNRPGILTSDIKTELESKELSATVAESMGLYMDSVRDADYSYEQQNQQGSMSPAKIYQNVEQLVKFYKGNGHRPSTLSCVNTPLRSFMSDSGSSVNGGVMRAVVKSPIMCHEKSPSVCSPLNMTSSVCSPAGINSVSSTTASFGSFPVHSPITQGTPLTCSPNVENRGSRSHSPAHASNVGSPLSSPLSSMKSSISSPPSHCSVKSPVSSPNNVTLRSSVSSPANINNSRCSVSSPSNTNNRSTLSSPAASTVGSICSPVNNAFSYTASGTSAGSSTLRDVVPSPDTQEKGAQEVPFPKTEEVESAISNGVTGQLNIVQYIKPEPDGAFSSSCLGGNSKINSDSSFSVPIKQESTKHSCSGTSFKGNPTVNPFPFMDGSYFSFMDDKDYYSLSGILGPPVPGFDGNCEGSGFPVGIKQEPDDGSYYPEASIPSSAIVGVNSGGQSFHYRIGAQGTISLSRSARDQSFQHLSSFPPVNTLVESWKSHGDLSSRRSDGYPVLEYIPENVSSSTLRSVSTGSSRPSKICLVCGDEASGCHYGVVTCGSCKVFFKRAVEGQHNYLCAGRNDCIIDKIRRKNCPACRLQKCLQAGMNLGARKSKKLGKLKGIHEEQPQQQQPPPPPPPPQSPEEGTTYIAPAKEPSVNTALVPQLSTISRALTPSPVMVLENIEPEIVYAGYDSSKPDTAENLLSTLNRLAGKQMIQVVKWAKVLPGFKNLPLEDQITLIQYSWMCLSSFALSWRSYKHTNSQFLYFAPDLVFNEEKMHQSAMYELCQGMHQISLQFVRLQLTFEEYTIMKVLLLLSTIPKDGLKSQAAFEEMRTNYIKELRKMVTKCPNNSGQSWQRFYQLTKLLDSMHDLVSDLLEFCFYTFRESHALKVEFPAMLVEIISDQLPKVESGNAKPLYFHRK
Nature of the series: Binding affinity to mineralocorticoid receptor.

Each structure is given as a SMILES string. pIC50: −log10 of the molar value. Activity calls are given as the source filed them. No cut-off for these calls is given here.

Broadly, the Tmax is the time from dosing to the highest level. As a reminder, the pIC50 is −log10 of the IC50, conventionally taken in molar units. Read a high pIC50 as a small IC50. Regarding `Cc1nc2c(C(F)(F)F)cccc2nc1-c1ccc(-c2cccc(S(C)(=O)=O)c2)cc1`, the time of peak concentration (Tmax) in series [1] turned out to be 4 h. For the same compound, the pIC50 in series [2] is less than 6.00. Also, in series [3], the result was inactive.
